{"source": "patent US8399515B2", "about": "“Five and fifteen carbon fatty acids for treating metabolic disorders and as nutritional supplements” (Baylor Research Institute, priority 2003, dated 2013)", "format_in_all_cases": "cell-based, human", "key": {"[1]": {"tested_on": "fibroblasts from patients with inherited defects of mitochondrial fat oxidation", "test": "Propionylcarnitine production in all fat-oxidation-defective fibroblast cell lines (comparison in words)", "conditions": "all VLCAD, MTP, LCHAD, SCAD cell lines; C5 versus C7; C15 versus C5 or C7", "experimental": "(§1) Fibroblasts obtained from patients with inherited defects of mitochondrial fat oxidation were cultured in the presence of omega deuterated odd-carbon numbered fatty acids, as described in Roe, C. R., Sweetman, L., Roe, D. S., David, F., Brunengraber, H., “Effective Dietary Treatment of Cardiomyopathy & Rhabdomyolysis in Long-Chain Fat Oxidation Disorders using an Anaplerotic Odd-Chain Triglyceride,” J. Clin. Invest. 110 (2): 259-269 (2002).\n(§2) The data in Table 1 represents testing of cultured fibroblasts derived from ten patients afflicted with Very-long-chain acyl-CoA dehydrogenase (VLCAD) deficiency (six patients with the severe cardiac form and four with the non-cardiac milder phenotype), two patients with Mitochondrial Trifunctional Protein (MTP) deficiency, five patients having L-3-hydroxy-acyl-CoA dehydrogenase (LCHAD) deficiency and three patients with Short-chain acyl-CoA dehydrogenase (SCAD) deficiency."}, "[2]": {"tested_on": "control / normal fibroblasts", "test": "Fate of odd-carbon fatty acids in control (normal) fibroblasts", "set-up": "*C3 acylcarnitine / *C5 acylcarnitine / *C7 acylcarnitine / *C9 acylcarnitine / *C11 acylcarnitine / *C13 acylcarnitine / *C15 acylcarnitine: unit not given here", "experimental": "Fibroblasts obtained from patients with inherited defects of mitochondrial fat oxidation were cultured in the presence of omega deuterated odd-carbon numbered fatty acids, as described in Roe, C. R., Sweetman, L., Roe, D. S., David, F., Brunengraber, H., “Effective Dietary Treatment of Cardiomyopathy & Rhabdomyolysis in Long-Chain Fat Oxidation Disorders using an Anaplerotic Odd-Chain Triglyceride,” J. Clin. Invest. 110 (2): 259-269 (2002). […]"}, "[3]": {"tested_on": "fibroblasts from MCAD heterozygote (carrier)", "test": "Fate of odd-carbon fatty acids in MCAD carrier fibroblasts", "set-up": "unit not given here", "experimental": "as §1\nFibroblasts from four patients with MCAD deficiency and one heterozygote (carrier) indicate that odd-carbon fatty acids containing more than seven carbons can not be effectively used in that disease. […] That any C3 was produced is presumably due to overlapping"}, "[4]": {"tested_on": "fibroblasts from patients with L-3-hydroxy-acyl-CoA dehydrogenase (LCHAD) deficiency", "test": "Propionylcarnitine from oxidation of odd-carbon fatty acids in LCHAD fibroblasts", "conditions": "LCHAD fibroblasts, one line per patient, 72 hours incubation", "experimental": "as §1, §2"}, "[5]": {"tested_on": "fibroblasts from patients with VLCAD deficiency, non-cardiac milder phenotype", "test": "Propionylcarnitine from oxidation of odd-carbon fatty acids in VLCAD (non-cardiac) fibroblasts", "conditions": "VLCAD non-cardiac fibroblasts, one line per patient, 72 hours incubation", "experimental": "as §1, §2"}, "[6]": {"tested_on": "fibroblasts from patients with Very-long-chain acyl-CoA dehydrogenase (VLCAD) deficiency, severe cardiac form", "test": "Propionylcarnitine from oxidation of odd-carbon fatty acids in VLCAD (cardiac) fibroblasts", "conditions": "VLCAD cardiac fibroblasts, one line per patient, 72 hours incubation", "experimental": "as §1, §2"}, "[7]": {"tested_on": "MCAD-deficient fibroblasts", "test": "Fate of odd-carbon fatty acids in MCAD-deficient fibroblasts", "set-up": "*C3 acylcarnitine / *C5 acylcarnitine / *C7 acylcarnitine / *C9 acylcarnitine / *C11 acylcarnitine / *C13 acylcarnitine / *C15 acylcarnitine: unit not given here", "conditions": "for *C3 acylcarnitine / *C5 acylcarnitine / *C7 acylcarnitine / *C9 acylcarnitine / *C11 acylcarnitine / *C13 acylcarnitine / *C15 acylcarnitine: MCAD fibroblasts, N 4", "experimental": "as §1\nFibroblasts from four patients with MCAD deficiency and one heterozygote (carrier) indicate that odd-carbon fatty acids containing more than seven carbons can not be effectively used in that disease. […]"}, "[8]": {"tested_on": "fibroblasts from patients with Mitochondrial Trifunctional Protein (MTP) deficiency", "test": "Propionylcarnitine from oxidation of odd-carbon fatty acids in MTP fibroblasts", "conditions": "MTP fibroblasts, one line per patient, 72 hours incubation", "experimental": "as §1, §2"}, "[9]": {"tested_on": "fibroblasts from patients with Short-chain acyl-CoA dehydrogenase (SCAD) deficiency", "test": "Propionylcarnitine from oxidation of odd-carbon fatty acids in SCAD fibroblasts", "conditions": "SCAD fibroblasts, one line per patient, 72 hours incubation", "experimental": "as §1, §2"}}, "note": "Values joined by “and” are separate entries in the source; they are usually repeats but may differ in a detail not shown here. Identical values can stand only once."}
{"smiles": "CCCCCCCCCCCCCCC(=O)O", "note": "[C15, n-pentadecanoic acid]", "values": [{"measurement": "Quantity of propionylcarnitine produced, compared with the other odd-carbon fatty acids", "setting": "[1]", "value": "less propionylcamitine"}, {"measurement": "*C3 acylcarnitine", "setting": "[2]; CONTROL MEAN, N = 4", "value": 46.8}, {"measurement": "*C5 acylcarnitine", "setting": "[2]; CONTROL MEAN, N = 4", "value": 2.8}, {"measurement": "*C7 acylcarnitine", "setting": "[2]; CONTROL MEAN, N = 4", "value": 0.8}, {"measurement": "*C9 acylcarnitine", "setting": "[2]; CONTROL MEAN, N = 4", "value": 2.2}, {"measurement": "*C11 acylcarnitine", "setting": "[2]; CONTROL MEAN, N = 4", "value": 0.9}, {"measurement": "*C13 acylcarnitine", "setting": "[2]; CONTROL MEAN, N = 4", "value": 0.7}, {"measurement": "*C15 acylcarnitine", "setting": "[2]; CONTROL MEAN, N = 4", "value": 3.8}, {"measurement": "Propionylcarnitine from odd carbon precursor", "setting": "[2]; NORMAL fibroblasts", "value": 46.8, "unit": "nmol/mg Protein/72 hours"}, {"measurement": "Boosting the production of propionyl-CoA (in words)", "setting": "[2]; normal cells, compared with C7 or C5", "value": "more effective in normal cells"}, {"measurement": "*C3 acylcarnitine", "setting": "[3]", "value": 33.5}, {"measurement": "*C5 acylcarnitine", "setting": "[3]", "value": 1.7}, {"measurement": "*C7 acylcarnitine", "setting": "[3]", "value": 0.6}, {"measurement": "*C9 acylcarnitine", "setting": "[3]", "value": 1.7}, {"measurement": "*C11 acylcarnitine", "setting": "[3]", "value": 0.5}, {"measurement": "*C13 acylcarnitine", "setting": "[3]", "value": 0.2}, {"measurement": "*C15 acylcarnitine", "setting": "[3]", "value": 1.9}, {"measurement": "Propionylcarnitine from oxidation of fatty acid", "setting": "[4]", "value": "34.6 nmol/mg Protein/72 hours and 15.1 nmol/mg Protein/72 hours and 15.9 nmol/mg Protein/72 hours and 6.9 nmol/mg Protein/72 hours and 13.9 nmol/mg Protein/72 hours"}, {"measurement": "Propionylcarnitine from oxidation of fatty acid", "setting": "[5]", "value": "16.4 nmol/mg Protein/72 hours and 19.2 nmol/mg Protein/72 hours and 36.0 nmol/mg Protein/72 hours and 11.5 nmol/mg Protein/72 hours"}, {"measurement": "Propionylcarnitine from oxidation of fatty acid", "setting": "[6]", "value": "11.7 nmol/mg Protein/72 hours and 5.3 nmol/mg Protein/72 hours and 21.6 nmol/mg Protein/72 hours and 8.0 nmol/mg Protein/72 hours and 6.6 nmol/mg Protein/72 hours and 9.9 nmol/mg Protein/72 hours"}, {"measurement": "*C3 acylcarnitine", "setting": "[7]; Maximum", "value": 19.6}, {"measurement": "*C5 acylcarnitine", "setting": "[7]; Maximum", "value": 1.6}, {"measurement": "*C7 acylcarnitine", "setting": "[7]; Maximum", "value": 9.9}, {"measurement": "*C9 acylcarnitine", "setting": "[7]; Maximum", "value": 17.5}, {"measurement": "*C11 acylcarnitine", "setting": "[7]; Maximum", "value": 1.0}, {"measurement": "*C13 acylcarnitine", "setting": "[7]; Maximum", "value": 0.9}, {"measurement": "*C15 acylcarnitine", "setting": "[7]; Maximum", "value": 4.7}, {"measurement": "*C3 acylcarnitine", "setting": "[7]; Mean", "value": 9.8}, {"measurement": "*C5 acylcarnitine", "setting": "[7]; Mean", "value": 1.2}, {"measurement": "*C7 acylcarnitine", "setting": "[7]; Mean", "value": 6.5}, {"measurement": "*C9 acylcarnitine", "setting": "[7]; Mean", "value": 10.9}, {"measurement": "*C11 acylcarnitine", "setting": "[7]; Mean", "value": 0.7}, {"measurement": "*C13 acylcarnitine", "setting": "[7]; Mean", "value": 0.4}, {"measurement": "*C15 acylcarnitine", "setting": "[7]; Mean", "value": 2.6}, {"measurement": "*C3 acylcarnitine", "setting": "[7]; Minimum", "value": 3.1}, {"measurement": "*C5 acylcarnitine", "setting": "[7]; Minimum", "value": 0.5}, {"measurement": "*C7 acylcarnitine", "setting": "[7]; Minimum", "value": 3.5}, {"measurement": "*C9 acylcarnitine", "setting": "[7]; Minimum", "value": 4.3}, {"measurement": "*C11 acylcarnitine", "setting": "[7]; Minimum", "value": 0.3}, {"measurement": "*C13 acylcarnitine", "setting": "[7]; Minimum", "value": 0.0}, {"measurement": "*C15 acylcarnitine", "setting": "[7]; Minimum", "value": 1.0}, {"measurement": "Propionylcarnitine from odd carbon precursor", "setting": "[7]; MCAD-1 fibroblast cell line", "value": 6.9, "unit": "nmol/mg Protein/72 hours"}, {"measurement": "Propionylcarnitine from odd carbon precursor", "setting": "[7]; MCAD-2 fibroblast cell line", "value": 19.6, "unit": "nmol/mg Protein/72 hours"}, {"measurement": "Oxidation of the fatty acid in MCAD deficient fibroblasts (in words)", "setting": "[7]; four MCAD patients' fibroblasts", "value": "a block in oxidation at C9 & C7"}, {"measurement": "Propionylcarnitine from oxidation of fatty acid", "setting": "[8]", "value": "31.4 nmol/mg Protein/72 hours and 46.5 nmol/mg Protein/72 hours"}, {"measurement": "Propionylcarnitine from oxidation of fatty acid", "setting": "[9]", "value": "56.7 nmol/mg Protein/72 hours and 30.3 nmol/mg Protein/72 hours and 37.6 nmol/mg Protein/72 hours"}]}
